# What was measured:
# [1] = unbound molecule; cited from earlier work
# [2] = Thermogravimetric analysis, thermal stability; format: physicochemical; details: simple salt
# Experimental: Amberlite IRP69 strong cation-exchange material was stirred in a minimal amount of deionized water and an excess (˜10-500 molar excess) silver nitrate was added and the mixture stirred by the addition of a mechanical stirrer for 60 minutes. […] The modified IRP69 was dried under vacuum at 130° C. and the material was milled with an IKA homogenizer and the resulting particles were put through a sieve with a 35 μm cutoff. The powder was dried under vacuum and used for incorporation within various polymer composite mixtures.
# Thermal stability of a benzalkonium salt of IRP69 (IRP69-benzalkonium) was measured and compared to thermal stability of benzalkonium chloride (simple salt). […] (close to the optimal processing temperature polyethylene terephthalate), unexpectedly providing for stable incorporation of the subject biologically active materials within composites useful to create fibers, threads, woven textiles and fabrics incorporating these thermally demanding materials.
Compound,susceptible to thermal degradation to p-chloroaniline above [1],begins to decompose at (thermogravimetric profile) [2]
[H]/N=C(\N/C(=N/[H])NCCCCCCNC(=N)NC(=N)Nc1ccc(Cl)cc1)Nc1ccc(Cl)cc1 [Chlorhexidine],above 70 °C,–
benzalkonium chloride,–,about 200 °C
